Laboratory results: patent publication US20230065158A1, “OXABICYCLOHEPTANES FOR TREATMENT OF SMALL CELL LUNG CANCER” (Lixte Biotechnology, Inc., priority 2021, published 2023)
Read-outs that look alike come from different tables or passages of the source.

What was measured:
[1] = tested on: H69 cells; assay: Cell Counting Kit-8 cytotoxicity and drug combination, H69
Experimental: A Mann-Whitney U test was used for comparison between the normal and SCLC samples. FIG. 1B: IHC for PP2A was conducted on TMA tissue sections and images were captured at 4× or 20× using a 3D-Histech PANNORAMIC SCAN whole slide scanner (3D-Histech, Budapest, Hungary). […] TMAs were scored in normal (n=24) and tumor (n=79) cores on a scale from 0 (no staining/no protein expression) to 3+(strong staining/high protein expression). FIG. 1C: Summary bar graph of the average PP2A subunit staining. IHC staining intensity of normal and tumor cores. […] FIG. 1D: In order to compare the expression of PP2A subunits A and C, cell lysates from seven SCLC cell lines and HBEC 3KT (non-malignant cell line) were subjected to western blotting. FIG. 1E: PP2A activity was determined using a serine/threonine phosphatase activity assay (Millipore) after 24 h exposure to cantharidin (10 μM) and LB-100 (5 μM). […] The Cell Counting Kit-8 assay detected cell H524 and H69 cell viability. […] FIGS. 1I-1K: Graphs depict the mean+SEM of percent viability for cells (n=3). Colony formation assays were used to count the ability of H524 (FIGS. 11 and 1J) and H69 (FIGS. 1K and 1L) cells to form colonies. […] Representative images of colonies at 4× are shown under the graph (n=2).*p<0.05; **, p<0.01; *** p<0.001; ****, p<0.0001. Experiments were repeated in triplicate and representative data are shown.

[2] = tested on: H524 and H69 cells; assay: Whole cell Pt accumulation, ICP-MS; format: cell-based; conditions: LB100 pretreatment then carboplatin 4 hours, versus carboplatin alone
Experimental: FIGS. 3A-3H depict SCLC cell invasion through HUVEC monolayer. FIGS. 3A-3D: Graphical representation of H524/H69 cell ability to disrupt a confluent HUVEC monolayer using an electrical substrate-impedance sensing system. Arrows indicate time point when cells were added. Inserts show mean values and SD for each group after 20 h of drug treatment. After treatment, cell viability was counted using an Auto T4 Cell Counter (Nexcelom Cellometer). Cell viability was 90-95% for drug-treated groups (n=2). p<0.001 (***) for control (untreated cells) vs. drug combination (LB100/carboplatin). Whole cell Pt accumulation. Graphical representation of LB-100 effect on platinum uptake by SCLC cells. […]
To this end, platinum (Pt) levels were measured in H524 and H69 cells using Inductively Coupled Plasma Mass Spectrometry (ICP-MS). […]
Samples were prepared and analyzed for Pt concentrations at the Isotoparium (California Institute of Technology), using precleaned Teflon beakers (PFA), Optima grade reagents (Fisher Chemical) and 18.2 MΩ Milli-Q water. […] All samples were analyzed using an iCAP RQ (ThermoFisher, Waltham, Mass.) ICP-MS and an SC-2 DX autosampler (Elemental Scientific, Omaha, Nebr.). […] A Pt standard curve (0.001, 0.01, 0.1, 1.0 ppb, Spex Certiprep Assurance, Lot #24-140PTM) was created using the HNO3 stock solution and measured for sample calibration. […]

C[NH+]1CCN(C(=O)C2C(C(=O)O)[C@H]3CC[C@@H]2O3)CC1 (stereo in doubt) [LB-100, 3-[(4-Methylpiperazin-1-yl)carbonyl]-7-oxabicyclo[2.2.1]heptane-2-carboxylic acid]
IC50 ([1]; Homo sapiens, NCI-H69, 72 h, read-out: Cytotoxicity IC50, H69, 72 hours): ~20 µM
IC50 ([1]; human, 72 h): 22.6 µM
Pt level in cells [2]: enhanced the uptake of Pt
